These results are taken from ChEMBL document CHEMBL1201862, “PubChem BioAssay data set” (2004).

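Each compound was tested at five concentrations against cells in 96-well plates for 48 hours. Abbreviation: GI50, concentration required for 50% inhibition of growth.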 Calls of active or inactive are those of the source. Cut-off read from the data, not from the text of the source: active = GI50 up to about 1.1 µM and inactive = higher.

Some test systems named below: OVCAR-8; NCI/ADR-RES; A498; EKVX; MCF7; HCC 2998; KM12; SNB-75; DMS-273; HL-60; SK-MEL-5; SN12C; NCI-H226; SK-MEL-28; NCI-H522; SK-OV-3; NCI-H460; HCT-15.
Holding throughout (assay): inhibition of tumour cell growth, NCI panel, 48 h

Take `Oc1cc(O)cc(/C=C/c2ccc(O)c(O)c2)c1` [PICEATANNOL]: the GI50 in the test with OVCAR-8 is 24.2 µM (inactive); with NCI/ADR-RES, 16.6 µM (inactive); with A498, 40.9 µM (inactive); with EKVX, 28.2 µM (inactive); in the test with MCF7 it was 20.1 µM (inactive); with HCC 2998, 16.7 µM (inactive). Also, the GI50 in the test on KM12 was 3.52 µM (inactive); in the test on SNB-75, 14.1 µM (inactive); in the test with DMS-273, 12.3 µM (inactive); in the test with HL-60, 2.74 µM (inactive); with SK-MEL-5 it was 11.1 µM (inactive); in the test with SN12C, 12.4 µM (inactive). The GI50 in the test on NCI-H226 is 19.5 µM (inactive); in the test on SK-MEL-28 it was 49.9 µM (inactive); in the test with NCI-H522, 2.75 µM (inactive); with SK-OV-3, 18.9 µM (inactive); with NCI-H460 it was 22.2 µM (inactive); in the test with HCT-15, 5.9 µM.

`COc1cc2c(cc1OC)C(C(c1ccccc1)c1ccccc1)N(C)CC2` (stereo not given): the GI50 is > 100 µM (inactive) in the test on OVCAR-8; 68.9 µM (inactive) in the test with NCI/ADR-RES; > 100 µM (inactive) in the test with A498; > 100 µM (inactive) with EKVX; 52.4 µM (inactive) with MCF7; 26.3 µM (inactive) in the test with HCC 2998. Also, the GI50 in the test with KM12 was > 100 µM (inactive); in the test on SNB-75 it was 49.1 µM (inactive); in the test on DMS-273 it was 77.3 µM (inactive); in the test with HL-60, 40.6 µM (inactive); in the test with SK-MEL-5, 21 µM (inactive); with SN12C, > 100 µM (inactive). Also, the GI50 was > 92.9 µM (inactive) in the test with NCI-H226; > 79.3 µM (inactive) with SK-MEL-28; 74.1 µM (inactive) with NCI-H522; 79.3 µM (inactive) in the test with SK-OV-3; > 89.1 µM (inactive) in the test on NCI-H460; over 100 µM in the test with HCT-15.

On to `CCOC(=O)c1nc2ccc([N+](=O)[O-])cc2c2c1CCO2`, for which the GI50 was > 100 µM (inactive) in the test with OVCAR-8; > 100 µM (inactive) in the test with A498; > 100 µM (inactive) with EKVX; > 100 µM (inactive) in the test with HCC 2998; > 100 µM (inactive) with KM12; 41.3 µM (inactive) in the test with SNB-75. Also, the GI50 with DMS-273, with HL-60, with SK-MEL-5, in the test with SN12C, in the test with NCI-H226 and with SK-MEL-28 was > 100 µM (inactive) each time. Moreover, the GI50 was 92.3 µM (inactive) in the test with NCI-H522, > 100 µM (inactive) in the test with SK-OV-3, > 100 µM (inactive) with NCI-H460 and over 100 µM in the test on HCT-15.

Turning to `C/N=c1\ss/c(=N\C(=S)N(C)C)n1C1CCCCC1`, the GI50 with OVCAR-8 is > 31.6 µM (inactive); in the test with A498, > 31.6 µM (inactive); in the test with EKVX it was > 31.6 µM (inactive); with HCC 2998, > 31.6 µM (inactive); in the test on KM12, > 31.6 µM (inactive); in the test on SNB-75, > 10 µM (inactive). In addition, the GI50 in the test with DMS-273 was > 31.6 µM (inactive); in the test with HL-60, > 100 µM (inactive); in the test on SK-MEL-5, > 31.6 µM (inactive); in the test with SN12C, > 31.6 µM (inactive); in the test with NCI-H226, > 31.6 µM (inactive); in the test with SK-MEL-28, > 31.6 µM (inactive). Besides, the GI50 with NCI-H522 is > 31.6 µM (inactive); in the test on SK-OV-3, 24.2 µM (inactive); with NCI-H460, > 31.6 µM (inactive); with HCT-15, over 31.6 µM.

Turning to `Oc1cc(Cl)ncn1`, the GI50 with OVCAR-8, with A498, with EKVX, in the test on HCC 2998, with KM12 and in the test with SNB-75 was > 100 µM (inactive) in each case. Further, the GI50 in the test with DMS-273, with HL-60, in the test with SK-MEL-5, in the test with SN12C, in the test on NCI-H226 and in the test with SK-MEL-28 was > 100 µM (inactive) in each case. Besides, the GI50 in the test with NCI-H522 was > 100 µM (inactive); with SK-OV-3, > 100 µM (inactive); in the test with NCI-H460 it was > 100 µM (inactive); with HCT-15, over 100 µM.

For the compound `CC1CN1c1c(C(=O)/C=C/c2ccc(F)cc2)c(-c2ccccc2)nn(C)c1=O` (stereo not given), the GI50 was 14.2 µM (inactive) in the test on OVCAR-8; > 10 µM (inactive) with A498; 19 µM (inactive) with EKVX; 15.2 µM (inactive) in the test with HCC 2998; 15.7 µM (inactive) in the test with KM12; 14.3 µM (inactive) in the test with SNB-75. The GI50 in the test on DMS-273 was > 10 µM (inactive); in the test with HL-60 it was 13.4 µM (inactive); with SK-MEL-5, 16 µM (inactive); in the test with SN12C it was 15.4 µM (inactive); with NCI-H226, 11.9 µM (inactive); with SK-MEL-28, 17.5 µM (inactive). In addition, the GI50 in the test on NCI-H522 is > 10 µM (inactive); in the test on SK-OV-3 it was > 10 µM (inactive); in the test with NCI-H460, 17.1 µM (inactive); with HCT-15 it was over 10 µM.

Turning to `O=C1C=C2SC3C[C@@]24CC1[N+]1=c2c4c(c(O)c4c2=C(C=N4)CC1)N3`, the GI50 in the test on OVCAR-8 is 2.03 µM (inactive); in the test on NCI/ADR-RES it was 6.68 µM (inactive); in the test with A498 it was 5.31 µM (inactive); with EKVX, 2.27 µM (inactive); in the test on MCF7, 2.08 µM (inactive); in the test with HCC 2998, 2.74 µM (inactive). In addition, the GI50 was 2.13 µM (inactive) with KM12; 4.61 µM (inactive) in the test on SNB-75; 2.12 µM (inactive) in the test on DMS-273; 1.46 µM (inactive) in the test on HL-60; 1.88 µM (inactive) in the test with SK-MEL-5; 2.67 µM (inactive) in the test on SN12C. In addition, the GI50 was 2.29 µM (inactive) with NCI-H226; 1.94 µM (inactive) in the test with SK-MEL-28; 1.58 µM (inactive) with NCI-H522; 2.96 µM (inactive) with SK-OV-3; 3.2 µM (inactive) in the test with NCI-H460; 3.4 µM in the test on HCT-15.

`Cc1c(C(=O)CC(=O)C(=O)NC2C3CC4CC(C3)CC2C4)[n+]([O-])c2ccccc2[n+]1[O-]` (stereo not given): the GI50 in the test on OVCAR-8, with A498, in the test with EKVX, in the test with HCC 2998, in the test on KM12 and in the test with SNB-75 was > 100 µM (inactive) throughout. In addition, the GI50 in the test with DMS-273, in the test on HL-60, in the test on SK-MEL-5, with SN12C, in the test on NCI-H226 and in the test with SK-MEL-28 was > 100 µM (inactive) in each case. Further, the GI50 is > 100 µM (inactive) in the test on NCI-H522, > 100 µM (inactive) with SK-OV-3, > 100 µM (inactive) in the test with NCI-H460 and over 100 µM in the test on HCT-15.

For `N#C/N=C(\N)NCCO`, the GI50 with OVCAR-8, in the test on A498, in the test with EKVX, with HCC 2998, in the test with KM12 and in the test on SNB-75 was > 100 µM (inactive) in each case. In addition, the GI50 in the test with DMS-273, in the test with HL-60, in the test with SK-MEL-5, with SN12C, in the test with NCI-H226 and with SK-MEL-28 was > 100 µM (inactive) throughout. Besides, the GI50 with NCI-H522 is > 100 µM (inactive); with SK-OV-3, > 100 µM (inactive); with NCI-H460, > 100 µM (inactive); in the test with HCT-15, 38.7 µM.
